From US20080194631A1, “Medicament For the Treatment of Central Nervous System Disorders” (priority 2004, published 2008)

Legend:
[1] = tested on: hyperactivity induced by MK801; assay: Model of locomotor hyperactivity induced by MK801; type: in vivo; details: clozapine 1 mg/kg
Protocol: Given the pharmacological profile of the molecules chosen toward the noradrenergic and serotoninergic receptors, an antipsychotic activity was sought. The substances were tested in the model of locomotor hyperactivity induced by MK801. […] In this model and under our experimental conditions, clozapine (1 mg/kg) reduces by 56% the hyperactivity induced by MK 801.
Effect of the combination 1 mg/kg ifenprodil+1 mg/kg cyproheptadine on the locomotor activity induced by MK801 (cm covered, mean +SEM).

C57/BL6J male mice = assay: Motor and exploratory activity test in open-field (effects of the products on the locomotor activity); type: in vivo; details: ifenprodil alone, doses of less than 10 mg/kg
Protocol: (§1) The principle of the behavioral sensitization test is based on the measurement of the locomotor activity. The latter is measured in the open-field test.
Motor and Exploratory Activity Test in Open-Field
(§2) The animals used are 9-week old C57/BL6J male mice at the beginning of the experiment.
(§3) The open-fields used to measure the activity are 4 square chambers made of transparent plexiglas. Each open-field is arranged in a setting equipped with photoelectric cells which make it possible to record the movements of the animal.
The products used have known psychotropic properties. […] Since the principle of the study is based on the measurement of the locomotor activity, it is preferable to have a preliminary evaluation of these effects under the experimental conditions used.
All the products are dissolved in physiological saline (0.9% NaCl) so that the volume for injection is 10 ml/kg of body weight.
IFENPRODIL was tested at the following doses: 1 mg/kg; 3 mg/kg and 10 mg/kg.
The experiments were also performed in order to evaluate the effect of the combination of the products:

[2] = tested on: sensitization induced by amphetamine; assay: Behavioral sensitization protocol (amphetamine), locomotor activity in open-field; type: in vivo, mice; details: repeated sessions, amphetamine 2 mg/kg
Protocol: as §1, §2, §3
Groups receive beforehand an administration of one of the products or the combination of both.
During the 1st session, the animals receive NaCl at the 1st and 2nd injection. The experiment is performed over several sessions, 2 to 10 days apart.
The experiments were performed on 5 groups of animals which received the following treatments at each session.

[3] = in vivo; cited from earlier work
[4] = tested on: stimulant effects of alcohol; details: in vivo; cited from earlier work
alcohol withdrawal = details: in vivo; cited from earlier work

Row | SMILES | reduction of the hyperactivity induced by MK 801 [1] | effect on locomotion (C57/BL6J male mice) | effect on the development (and expression) of behavioral sensitization to amphetamine [2] | anxiolytic effects [3] | effect on the expression of sensitization (alcohol) [4] | effect on the stimulant effects of alcohol [4] | effect on the physical signs induced by alcohol withdrawal (alcohol withdrawal)
1 | CN1CCN(C2=Nc3cc(Cl)ccc3Nc3ccccc32)CC1 [clozapine] | 56% | – | – | – | – | – | –
2 | CC(C(O)c1ccc(O)cc1)N1CCC(Cc2ccccc2)CC1 (stereo not shown) [Ifenprodil] | – | does not have a significant effect | limited effects | anxiolytic effects | does not block | reduces | reduces
